{"source": "patent US10639327B1", "about": "“Nano-calcium carbonate” (Washington University in St. Louis, priority 2015, dated 2020)", "key": {"[1]": {"test_system": "HT1080 tumors", "settings": "I.V., 0.3-0.4 g/Kg (~10x the nanoparticle dosage)", "experimental": "For determining pHe changes in vivo post bolus particle Intravenous injection, HT1080 tumors were grown subcutaneously in dorsal flanks of athymic nude mice, in dorsal bilateral flanks. Tumors generally grew in one flank. When the tumors growth reached approximately 50 mm^3 or greater, the extracellular pH was measured using an external pH electrode. […] Treatments were discontinued for at least 5 days before performing the in vivo pH measurements. […] The pH was measured using an extracellular pH electrode implanted into the tumor following a 15 min equilibration period after electrode entry. The pH electrode was calibrated within the week. About 1 mg of each size of particles (20 nm, 100 nm, 300 nm) in a 100 μL solution of PBS, CaCl2, MgCl2 and 2% bovine serum albumin was injected intravenously in individual mice. […] Tumor sizes at time of injection for this experiment were 12 mm×9 mm (20 nm particles), 13.7 mm×12.5 mm (100 nm), 13.5 mm×15.5 mm (300 nm), 12.5×16.5 mm (0.84% bicarbonate), 12.5×16.5 mm (7.5% bicarbonate), and 12.5×16.5 mm (vector). In general, the pH was then followed each minute for a minimum of 1 hour, or up to 3 hours if any changes were seen. […] Bleeding, if any, was also noted."}, "[2]": {"test_system": "2F2B cells", "experiment": "Fluorescent micrographs of cells treated with DOX nanoparticles vs free DOX", "type": "cell-based", "settings": "30 min treatment, DOX fluorescence", "protocol": "FIG. 4A depicts fluorescent micrographs showing 2F2B cells treated for 30 min with αvβ3-targeted perfluorocarbon nanoparticles incorporating DOX (Left) vs. equimolar exposure of free DOX (Middle).\nNot only was significant amount delivered to the nucleus (white arrow), the cytoplasmic content of DOX remained high (yellow arrow), providing a continuous source of DOX for nuclear translocation. […] The data also confirm that DOX fluorescence, which was used to obtain these images, will provide sufficient contrast for imaging DOX's intracellular trafficking to the nuclei."}}}
{"smiles": "O=C([O-])O.[Na+]", "note": "[sodium bicarbonate]", "values": [{"measurement": "tumor pH change", "setting": "[1]", "value": "did not induce a measurable pH change"}]}
{"smiles": "COc1cccc2c1C(=O)c1c(O)c3c(c(O)c1C2=O)C[C@@](O)(C(=O)CO)C[C@@H]3O[C@H]1C[C@H](N)[C@H](O)[C@H](C)O1", "note": "[free DOX, Doxorubicin]", "values": [{"measurement": "cytoplasmic content of DOX", "setting": "[2]", "value": "depleted rapidly"}]}
